The values that follow come from patent US20210120808A1, “Methods and Systems for Synergistic Continuity Approaches to Treatment and Preservation of Biological Cells” (Membrane Protective Technologies, Inc., priority 2017, published 2021).

The experiment concerns phospholipase A2. The experiment can be described thus: Egg yolk coagulation by goat seminal plasma in lactose yolk extender, image analysis with ImageJ. The experiment is classed as biochemical. The method, then:
An egg yolk extender was prepared substituting lactose (Trizma base 131.5 mM, Lactose 73 mM 40% v:v egg yolk), without citric acid and pH was adjusted to a standard extender pH of 7. Semen from […] was collected using an artificial vagina. The ejaculate was centrifuged for 5 min at 1000×g. The supernatant (seminal plasma) was removed, then 1 part seminal plasma was added to 1 part extender to create a 20% yolk solution. Extender was either lactose yolk extender alone or lactose yolk extender modified to contain the phospholipase inhibitor curcumin as found in Sea Buckthorn (see Gupta et al. Molecular and Cellular biochemistry October 2006 290:193, hereby incorporated by reference). Representative pictures were taken of each solution, then the 22° C. solutions of seminal plasma plus the various extenders were frozen to −80° C. and allowed to remain frozen for >24 hrs. Samples were thawed by incubation in 37° C. water bath for 1 minute, then representative pictures were taken. For each picture, the negative space (the white area visible between droplets) was measured using ImageJ software by adjusting the image threshold using “Auto” setting then analyzing particle size (see Rasband, W. S., ImageJ, U.S. National Institutes of Health, Bethesda, Md., USA, https://imagej.nih.gov/ij/, 1997-2018, hereby incorporated by reference). The mean particle size was recorded and the images were analyzed in triplicate. […] The left column is a non-limiting example of a pictorial representation of the lactose yolk solution without seminal plasma (control) pre-freezing and post-freezing. One observes that there is no significant change in the size of the egg yolk lipid droplets, and no coagulation has occurred.

Marks after values point to notes of the source that are not given here.

As to `COc1cc(/C=C/C(=O)CC(=O)/C=C/c2ccc(O)c(OC)c2)ccc1O` [curcumin], where the note is “area of coagulation, seminal plasma with vs without inhibitor, FIG. 8”, the “coagulation of egg yolk particles compared to Control” value was “statically significant decrease”. Further, the “Post-Thaw Area” value (frozen to −80° C. >24 hrs, thawed at 37° C., single pygmy buck, p < 0.05) is given as 35.6* pixel^2. Moreover, the “Pre-Freeze Area” value (goat seminal plasma plus lactose yolk extender, 0.2% curcumin, single pygmy buck, p < 0.05) is listed as 26.3* pixel^2. Moreover, under “pre-freeze seminal plasma with 0.2% plant-derived curcumin vs without curcumin”, the pre-freeze coagulation entry is “less coagulated”. Besides, the Coagulation rank (single pygmy buck, untreated seminal plasma ranks 2) is 1.
